Test results: paper PMC10687119, “Quaternary Ammonium Salts of Cationic Lipopeptides with Lysine Residues — Synthesis, Antimicrobial, Hemolytic and Cytotoxic Activities” (Probiotics and Antimicrobial Proteins, 2023)
In brackets after ≈: the same amount, converted by molar mass.

tested on: E. faecium ATCC 700221; format: cell-based, Enterococcus faecium; conditions: ATCC 700221, 18 h
Experimental: (§1) The Acinetobacter baumannii ATCC BAA-1605, Enterococcus faecium ATCC 700221, Klebsiella aerogenes ATCC 13048, Klebsiella pneumoniae ATCC 700603, Pseudomonas aeruginosa ATCC 9027, Staphylococcus aureus ATCC 33591, Candida glabrata ATCC 15126 strains were acquired from the American Type Culture Collection (ATCC, Manassas, USA). All the strains were stored at −80 °C in Roti-Store cryo vials (Carl Roth GmbH, Germany) and before the tests were transferred into fresh Mueller–Hinton broth (MHB, Becton Dickinson, Poland) for bacteria or RPMI-1640 (Sigma-Aldrich, Germany) for fungi and incubated for 24 h at 37 °C. Then, the cultures were cultured on the Mueller–Hinton agar (BioMaxima, Poland) or Sabouraud dextrose agar (SDA, BioMaxima) plates, respectively, and incubated as just mentioned. For microbiological assays, a minimum of three to five well-isolated colonies of the same morphological type were carefully picked from the agar cultures. These colonies were transferred with sterile loop into fresh microbiological medium and incubated with shaking (100 rpm) at 37 °C until they reached logarithmic phase of growth. Cell densities for all assays were adjusted through spectrophotometric measurements (Multiskan GO Microplate Spectrophotometer, Thermo Fisher Scientific, Finland) at 600 and 530 nm for bacteria and fungi, respectively.
(§2) The MICs were determined by broth microdilution method according to the Clinical and Laboratory Standard Institute guidelines. For this purpose, initial inoculums of bacteria (5 × 10^5 CFU/mL) in MHB and yeasts (2 × 10^3 CFU/mL) in RPMI-1640 with 2% D-glucose were exposed to the ranging concentration of lipopeptides (1–512 μg/mL) and incubated at 37 °C for 18 h and 24 h, respectively. The experiments were conducted on 96-well microtiter polystyrene plates (Kartell, Italy). The growth was assessed visually after incubation and the MIC was assumed as the lowest peptide concentration at which a noticeable growth of microorganisms was inhibited. Benzalkonium chloride (Sigma-Aldrich, Germany) was used as reference compound. All experiments were conducted in triplicate.

Row | MIC | SMILES
1 | 16 mg/L | CCCCCCCCCCCCCCCC(=O)N[C@@H](CCCC[N+](C)(C)C)C(N)=O [Peptide 1Pq, C16-K(Me3)^+-NH2]
2 | 32 mg/L (≈ 66.2 µM) | CCCCCCCCCCCCCC(=O)N[C@@H](CCCCN)C(=O)N[C@@H](CCCCN)C(N)=O [Peptide 2M, C14-KK-NH2]
3 | 8 mg/L (≈ 15.6 µM) | CCCCCCCCCCCCCCCC(=O)N[C@@H](CCCCN)C(=O)N[C@@H](CCCCN)C(N)=O [Peptide 2P, C16-KK-NH2]
4 | 4 mg/L (≈ 7.41 µM) | CCCCCCCCCCCCCCCCCC(=O)N[C@@H](CCCCN)C(=O)N[C@@H](CCCCN)C(N)=O [Peptide 2S, C18-KK-NH2]

tested on: S. aureus ATCC 33591; format: cell-based, Staphylococcus aureus; conditions: ATCC 33591, 18 h
Experimental: as §1, §2

Row | MIC | SMILES
5 | 16 mg/L | CCCCCCCCCCCCCCCC(=O)N[C@@H](CCCC[N+](C)(C)C)C(N)=O [Peptide 1Pq, C16-K(Me3)^+-NH2]
6 | 16 mg/L (≈ 33.1 µM) | CCCCCCCCCCCCCC(=O)N[C@@H](CCCCN)C(=O)N[C@@H](CCCCN)C(N)=O [Peptide 2M, C14-KK-NH2]

tested on: K. pneumoniae ATCC 700603; format: cell-based, Klebsiella pneumoniae; conditions: ATCC 700603, 18 h
Experimental: as §1, §2

Row | MIC | SMILES
7 | 512 mg/L | CCCCCCCCCCCCCCCC(=O)N[C@@H](CCCC[N+](C)(C)C)C(N)=O [Peptide 1Pq, C16-K(Me3)^+-NH2]
8 | >512 mg/L | CCCCCCCCCCCCCC(=O)N[C@@H](CCCCN)C(=O)N[C@@H](CCCCN)C(N)=O [Peptide 2M, C14-KK-NH2]
9 | 128 mg/L (≈ 250 µM) | CCCCCCCCCCCCCCCC(=O)N[C@@H](CCCCN)C(=O)N[C@@H](CCCCN)C(N)=O [Peptide 2P, C16-KK-NH2]
10 | 64 mg/L (≈ 119 µM) | CCCCCCCCCCCCCCCCCC(=O)N[C@@H](CCCCN)C(=O)N[C@@H](CCCCN)C(N)=O [Peptide 2S, C18-KK-NH2]

tested on: A. baumannii ATCC BAA 1605; format: cell-based, Acinetobacter baumannii; conditions: ATCC BAA 1605, 18 h
Experimental: as §1, §2

Row | MIC | SMILES
11 | 64 mg/L | CCCCCCCCCCCCCCCC(=O)N[C@@H](CCCC[N+](C)(C)C)C(N)=O [Peptide 1Pq, C16-K(Me3)^+-NH2]
12 | 512 mg/L (≈ 1060 µM) | CCCCCCCCCCCCCC(=O)N[C@@H](CCCCN)C(=O)N[C@@H](CCCCN)C(N)=O [Peptide 2M, C14-KK-NH2]
13 | 64 mg/L (≈ 125 µM) | CCCCCCCCCCCCCCCC(=O)N[C@@H](CCCCN)C(=O)N[C@@H](CCCCN)C(N)=O [Peptide 2P, C16-KK-NH2]
14 | 32 mg/L (≈ 59.3 µM) | CCCCCCCCCCCCCCCCCC(=O)N[C@@H](CCCCN)C(=O)N[C@@H](CCCCN)C(N)=O [Peptide 2S, C18-KK-NH2]

tested on: P. aeruginosa ATCC 9027; format: cell-based, Pseudomonas aeruginosa; conditions: ATCC 9027, 18 h
Experimental: as §1, §2

Row | MIC | SMILES
15 | >512 mg/L | CCCCCCCCCCCCCCCC(=O)N[C@@H](CCCC[N+](C)(C)C)C(N)=O [Peptide 1Pq, C16-K(Me3)^+-NH2]
16 | 128 mg/L (≈ 265 µM) | CCCCCCCCCCCCCC(=O)N[C@@H](CCCCN)C(=O)N[C@@H](CCCCN)C(N)=O [Peptide 2M, C14-KK-NH2]
17 | 16 mg/L (≈ 31.3 µM) | CCCCCCCCCCCCCCCC(=O)N[C@@H](CCCCN)C(=O)N[C@@H](CCCCN)C(N)=O [Peptide 2P, C16-KK-NH2]
18 | 128 mg/L (≈ 237 µM) | CCCCCCCCCCCCCCCCCC(=O)N[C@@H](CCCCN)C(=O)N[C@@H](CCCCN)C(N)=O [Peptide 2S, C18-KK-NH2]

tested on: K. aerogenes ATCC 13048; format: cell-based, Klebsiella aerogenes; conditions: ATCC 13048, 18 h
Experimental: as §1, §2

Row | MIC | SMILES
19 | 256 mg/L | CCCCCCCCCCCCCCCC(=O)N[C@@H](CCCC[N+](C)(C)C)C(N)=O [Peptide 1Pq, C16-K(Me3)^+-NH2]
20 | 512 mg/L (≈ 1060 µM) | CCCCCCCCCCCCCC(=O)N[C@@H](CCCCN)C(=O)N[C@@H](CCCCN)C(N)=O [Peptide 2M, C14-KK-NH2]
21 | 32 mg/L (≈ 62.5 µM) | CCCCCCCCCCCCCCCC(=O)N[C@@H](CCCCN)C(=O)N[C@@H](CCCCN)C(N)=O [Peptide 2P, C16-KK-NH2]
22 | 32 mg/L (≈ 59.3 µM) | CCCCCCCCCCCCCCCCCC(=O)N[C@@H](CCCCN)C(=O)N[C@@H](CCCCN)C(N)=O [Peptide 2S, C18-KK-NH2]

tested on: C. glabrata ATCC 15126; format: cell-based, Candida glabrata; conditions: ATCC 15126, 24 h
Experimental: as §1, §2

Row | MIC | SMILES
23 | 8 mg/L | CCCCCCCCCCCCCCCC(=O)N[C@@H](CCCC[N+](C)(C)C)C(N)=O [Peptide 1Pq, C16-K(Me3)^+-NH2]
24 | 256 mg/L (≈ 529 µM) | CCCCCCCCCCCCCC(=O)N[C@@H](CCCCN)C(=O)N[C@@H](CCCCN)C(N)=O [Peptide 2M, C14-KK-NH2]
25 | 16 mg/L (≈ 31.3 µM) | CCCCCCCCCCCCCCCC(=O)N[C@@H](CCCCN)C(=O)N[C@@H](CCCCN)C(N)=O [Peptide 2P, C16-KK-NH2]
26 | 8 mg/L (≈ 14.8 µM) | CCCCCCCCCCCCCCCCCC(=O)N[C@@H](CCCCN)C(=O)N[C@@H](CCCCN)C(N)=O [Peptide 2S, C18-KK-NH2]

tested on: human red blood cells (RBCs); format: cell-based; conditions: red cells of human
Experimental: The hemolysis assay was conducted using a procedure described previously. For this purpose, human red blood cells (RBCs) isolated from K2EDTA Single Donor Human Whole blood (Innovative Research, Inc, MI, USA) were rinsed with Phosphate-buffer saline (PBS, pH 7.4±0.05, composition - KCl 2.7 mM, NaCl 140 mM, phosphate 10mM; AppliChem GmbH, Germany) by centrifugation for 10 min at 800 × g. This process was repeated 3 times and the RBCs were resuspended in PBS. Then, the stock solution of RBCs was added to the serial dilution of lipopeptides on 96-well polystyrene plates to reach a final volume of 100 μL with a 4% concentration of erythrocytes (v/v) and a concentration range of 1-512 μg/mL of tested compounds. The control wells for 0% and 100% hemolysis consisted of RBCs suspended in PBS and 1% of Triton X-100 (Sigma-Aldrich, Germany), respectively. Benzalkonium chloride (Sigma-Aldrich, Germany) was used as reference compound. Subsequently, the plates were incubated for 60 min at 37 °C and then centrifuged at 800 × g for 10 min at 4 °C (Sorvall ST […] Centrifuge, Thermo Scientific). The supernatant was carefully […] to new microtiter plates. The release of hemoglobin was monitored absorbance measurements at 540 nm (MultiskanTM GO Microplate Spectrophotometer, Thermo Scientific). All experiments were conducted in triplicate. HC50 was calculated using an ic50.tk tool.

Row | HC50 | SMILES
27 | 32.21 ± 1.97 µg/mL | CCCCCCCCCCCCCCCC(=O)N[C@@H](CCCC[N+](C)(C)C)C(N)=O [Peptide 1Pq, C16-K(Me3)^+-NH2]
28 | 345.21 ± 12.80 µg/mL | CCCCCCCCCCCCCC(=O)N[C@@H](CCCCN)C(=O)N[C@@H](CCCCN)C(N)=O [Peptide 2M, C14-KK-NH2]
29 | 55.21 ± 1.69 µg/mL | CCCCCCCCCCCCCCCC(=O)N[C@@H](CCCCN)C(=O)N[C@@H](CCCCN)C(N)=O [Peptide 2P, C16-KK-NH2]
30 | 21.88 ± 0.68 µg/mL | CCCCCCCCCCCCCCCCCC(=O)N[C@@H](CCCCN)C(=O)N[C@@H](CCCCN)C(N)=O [Peptide 2S, C18-KK-NH2]

tested on: human keratinocyte cell line (HaCaT); format: cell-based; conditions: 24 h
Experimental: The immortalized human keratinocyte cell line (HaCaT), obtained from CLS (Cell Line Service, Germany) was cultured in DMEM-high glucose (Dulbecco’s Modified Eagle Medium) supplemented with 10% fetal bovine serum, 2 mM L-glutamine, 100 U/mL penicillin and 100 μg/mL streptomycin (Sigma-Aldrich; Merck KGaA) at 37 °C in a humidified atmosphere with 5% CO2. Cells were trypsinized, and the medium was renewed 2–3 times per week. The cytotoxicity of compounds was assessed by colorimetric CellTilter 96® Aqueous One Solution Cell Proliferation Assay (Promega, USA), containing a tetrazolium compound according to the manufacturer’s instructions. In brief, 7 × 10^3 HaCaT cells per well were plated on 96-well plates and incubated per night to adhere to the cultured dishes. After that time, different concentrations of the tested compounds ranging from 512 to 1 μg/mL were applied to the wells. Every compound was medium-soluble at 37 °C; thus, the non-treated cells were negative control. Serial dilutions of the tested compounds were always prepared before use. Cells were incubated with drugs for 24 h, and then, 20 μL of the CellTiter 96®AqueousOne Solution Reagent was added to each well containing treated cells in 100 µl of culture medium. After 4 h of incubation at 37 °C, the absorbance at 490 nm was recorded using a microplate reader (Epoch, BioTek Instruments, USA). The quantity of formazan product as measured by the amount of 490 nm absorbance is directly proportional to the number of living cells in culture. Benzalkonium chloride (Sigma-Aldrich, Germany) was used as reference compound. At least three independent experiments with two replicates were conducted for each concentration of a compound, and the IC50 values were calculated using GraphPad Prism 8 software.

Row | SMILES | IC50
31 | CCCCCCCCCCCCCCCC(=O)N[C@@H](CCCC[N+](C)(C)C)C(N)=O [Peptide 1Pq, C16-K(Me3)^+-NH2] | 19.25 ± 9.34 mg/L
32 | CCCCCCCCCCCCCC(=O)N[C@@H](CCCCN)C(=O)N[C@@H](CCCCN)C(N)=O [Peptide 2M, C14-KK-NH2] | 32.49 ± 4.84 mg/L (≈ 67.2 µM)
33 | CCCCCCCCCCCCCCCC(=O)N[C@@H](CCCCN)C(=O)N[C@@H](CCCCN)C(N)=O [Peptide 2P, C16-KK-NH2] | 10.27 ± 1.59 mg/L (≈ 20.1 µM)
34 | CCCCCCCCCCCCCCCCCC(=O)N[C@@H](CCCCN)C(=O)N[C@@H](CCCCN)C(N)=O [Peptide 2S, C18-KK-NH2] | 4.33 ± 0.79 mg/L (≈ 8.02 µM)
